Laboratory results from EP4692059A1, “CATIONIC LIPID HAVING DISULFIDE BOND” (Tohoku University, priority 2023, dated 2024).

Legend:
[1] = system: liver; assay: In vivo gene expression, luciferase luminescence in the liver after tail vein administration (Experimental Example 4); details: BALB/c mouse, mRNA 0.05 mg/kg
Description: LNP encapsulating mRNA that expresses luciferase (cationic lipid:DOPC:Chol:DMG-PEG2k = 52.5:7.5:40:1.5 (molar ratio)) was prepared by the method described in [Experimental Example 2], 1.
The prepared each mRNA-encapsulating LNP dispersion was administered from the tail vein of BALB/c mouse (male, 5-week-old). The dose of mRNA was set to 0.05 mg per 1 kg body weight of the mouse, and the dose of the mRNA-encapsulating LNP dispersion was set to 10 µL per 1 g body weight of the mouse. After 4.5 hr from the administration of the mRNA-encapsulating LNP dispersion, a PBS solution of D-luciferin potassium was administered into the abdominal cavity of the mouse. The dose of D-luciferin potassium was set to 3 mg per mouse, and the dose of the PBS solution of D-luciferin potassium was set to 200 µL per mouse. After 15 min from the administration of the PBS solution of D-luciferin potassium, the mouse was euthanized, and the liver was isolated. The luminescence in the liver was quantified using an in vivo imaging system (IVIS) with an exposure of 10 sec. The amount of luminescence in the liver was quantified by image analysis using Live Imaging software attached to IVIS. The amount of luminescence (photons/sec) was calculated from the acquired image and used as an index of gene expression activity. The cationic lipids used, the luminescence intensity in the liver, and the relative luminescence intensity (= luminescence intensity in the liver when cationic lipid of Example was used/luminescence intensity in the liver when cationic lipid of Comparative Example was used) are shown in Table 7-1 to Table 7-3. "E+0a" (a: integer) indicated in Table 7-1 to Table 7-3 means "10^a". For example, "3.94E+09" means "3.94×10^9". […]

[2] = Particle size, PdI and zeta potential of mRNA-encapsulating LNPs by dynamic light scattering (Experimental Example 2); format: physicochemical; details: mRNA-encapsulating LNP containing the cationic lipid
Description: An acidic buffer solution (total amount: 1080 µL) of nucleic acid was prepared by weighing 7.2 µg of mRNA solution (0.6 mg/mL) in a 5 mL tube and adding acidic malate buffer (20 mM, pH 3.0).
An acidic buffer solution of nucleic acid and an ethanol solution of lipid were each weighed in a syringe.
The particle size, PdI (Polydispersity Index), and zeta potential of the mRNA-encapsulating LNP prepared by the method of the above-mentioned 1 were measured by a dynamic light scattering method (Zetasizer Nano; Malvern).

[3] = dispersion in PBS, dynamic light scattering (Table 5-3)

zeta potential (mV) ([2]; dispersion in PBS (Table 5-3)): -4.47 mV | PdI [2, 3]: 0.099 | particle size (nm) [2, 3]: 108.70 nm
SMILES: CCCCCCCC/C=C\CCCCCCCC(=O)Oc1ccc(CC(=O)OCCC2CCN(CCSSCCN3CCC(CCOC(=O)Cc4ccc(OC(=O)CCCCCCC/C=C\CCCCCCCC)cc4)CC3)CC2)cc1 [Comparative Example, reference compound]
amount of luminescence (photons/sec) in liver ([1]; tail vein, 4.5 hr after administration, LNP cationic lipid:DOPC:Chol:DMG-PEG2k = 52.5:7.5:40:1.5, prepared as in Experimental Example 2): 1.52E+09 photons/sec | relative amount of luminescence ([1]; liver luminescence relative to cationic lipid of Comparative Example): 1.00
